Laboratory results as given in a melting point compilation (Tetko et al.; mined from patent text by program, amines drawn as free bases though some values may be those of a salt).

Compound | melting point [°C]
S=C(Oc1ccccc1)c1ccccc1 | 56
Cc1ccc(NC(=O)c2cc(Cl)ccc2NCC2CCN(C3CCSCC3)CC2)nc1 | 173 to 176
CC(C)(C)OC(=O)CNc1nccc(-c2nc(=O)c3ccccc3s2)n1 | 247 to 248
COC(=O)C1c2ccc(OC)cc2SC1c1ccc(OC)cc1 (stereo not given) | 98.3 to 99.8
CCCCc1nc(CO)c(Cl)n1Cc1ccccc1 | 78 to 80
CC(=O)c1ccc2c(c1)C(C)c1cc(C(C)=O)ccc1-2 | 128 to 129
Cc1nc2cnc3ccccc3c2[nH]1 | 242 to 245
Cc1ccc(S(=O)(=O)N(C)c2ccccc2[N+](=O)[O-])cc1 | 132
C=CCCC(=O)N1CCc2nnc(N(C)N)cc2C1 | 128 to 130
CC(=O)N1CC[C@H]2Cc3ccccc3[C@@H](c3ccccc3)N2CC1 (racemic) | 145 to 147
COC(=S)c1cc(C)cc(C)c1 | 46
Cc1c(C)c2c(c(C)c1OCCCc1ccccc1)C(c1ccc(C(C)C)cc1)C(C)(C)O2 (stereo not given) | 78 to 80
Cn1cc(-c2cccc(N3Cc4cc(C(C)(C)C)ccc4C3=O)c2CO)cc(Nc2ccccn2)c1=O | 138 to 139
Cc1ccccc1OCCCc1oc(-n2ccnc2)nc1-c1ccc(Cl)cc1 | 113 to 114
c1ccc2c(c1)Sc1ccccc1N2C1CN2CCC1CC2 (stereo not given) | 160 to 162
CCCCOC1c2ccccc2C(=O)N(CC2CC2)C1(/C=C/C(=O)OCC)CNC(=O)OC(C)(C)C (stereo not given) | 166 to 167
N#CC(Cl)Cc1ccccc1C(=O)O (stereo not given) | 116 to 117

Compound | melting point [°C]
COC(=O)c1ccc(CC(C)NCC(O)c2ccc(O)c(C)c2)cc1 (stereo not given) | 103 to 107
Nc1nc(N)c2c(ccc3[nH]c(-c4ccccc4)cc32)n1 | 322 to 323
CN1CCCC1=NC(=O)Nc1ccc(Br)cc1 | 134 to 136
O=C(Nc1ccc2ccc(Oc3ccccc3)nc2n1)C1CC1 | 190
CC(C)(O)CNC(=O)CC1CN=C(c2cc3cc(Oc4ccc(S(C)(=O)=O)nc4)cc(OC4CCOCC4)c3[nH]2)S1 (stereo not given) | 195 to 196
CCCCCCCCC1CC(Cn2cncn2)(c2ccc(OC)cc2)N(C)O1 (stereo not given) | 89 to 91
N#CCCNC(=O)c1nn(C2CCCCO2)cc1NC(=O)c1cc(Cl)ccn1 (stereo not given) | 218 to 219
O=C(O)C1=Cc2cc(-c3ccccc3)ccc2OC1C(F)(F)F (stereo not given) | 197 to 198
Cc1c(C(=O)OC(C)(C)C)nn(-c2ccc(Cl)cc2Cl)c1-c1ccc(Cl)cc1 | 112
Cc1cc(C)c(C2C(=O)CCCC2=O)c(C)c1 | 196 to 198
CCS(=O)(=O)N(CC(=O)Nc1ccncc1)C1CC(C)(C)Oc2ccc(F)cc21 (stereo not given) | 195
CCCCCNc1n[nH]c(C)c1C(=O)OCC | 117 to 119
N#Cc1ccccc1Sc1ccccc1N | 86 to 89
COC(=O)c1nc2ccc(CO)cc2cc1C | 84.2
CC(=O)Nc1cc(F)ccc1C(=O)NCCN1CCC2(CC1)C(=O)NCN2c1ccc(F)cc1 | 195
N#Cc1cccc(NC2CCN(Cc3cc(F)cc(C(F)(F)F)c3)CC2)n1 | 115
O=C(O)c1sc(C(F)(F)F)cc1OCc1ccccc1 | 142 to 144

Now from value to compound:

melting point [°C] | Compound
203 to 204 | Clc1ccc(N2CCN(Cc3n[nH]c4ccccc34)CC2)nc1
206 to 208 | COc1ccc(S(=O)(=O)Nc2ccc(Cl)nc2Nc2ccccc2)cc1
234 to 236 | CC(O)c1ccc2occ(-c3nnn[nH]3)c(=O)c2c1 (stereo not given)
95 to 96 | Cc1cccc(C2COc3c(ccc(O)c3O)C2)c1 (stereo not given)
248 to 250 | c1ccc2c(c1)CCc1c-2noc1N1CCN(Cc2c[nH]c3ncccc23)CC1
233 to 234 | O=C1C(=CCc2ccccc2)SC(=S)N1N=c1sc2ccccc2s1
78 to 81 | COC(=O)CCCCCCNC(=O)C(CO)NS(=O)(=O)c1ccc(Cl)cc1 (racemic)
239 to 243 | CCCCc1c2c(nn1-c1ccccc1)c(Cl)nc1ccccc12
183 to 185 | CCOC(=O)c1cc2c(=O)n(C3CCCC3)c3ccccc3n2c1
> 250 | O=C(O)c1cccc(C(=O)C=Cc2ccc(Cl)c(Cl)c2)c1O
171 | COC(=O)C1(Cc2ccc(Br)cc2)CCCN1C(=O)Nc1cc(Cl)cc(Cl)c1 (stereo not given)
118 to 121 | Cc1cc(SC(C)C)c(NC(=O)CCCCCCSc2nc3ccccc3[nH]2)c(SC(C)C)n1
68 | [N-]=[N+]=NS(=O)(=O)c1ccc(C(=O)Cl)cc1
231 to 233 | COc1cc(Nc2c(C#N)cnc3sc(I)cc23)c(Cl)cc1Cl
175 to 177 | COC(=O)C(C)[C@H]1CC[C@H]2[C@@H]3CCC4=CC(=O)CC[C@]4(C)[C@H]3CC[C@]12C (stereo not given in full)
69 to 70 | OCc1ccc(-c2ccccc2)cc1Cl
199 to 200 | O=C1NCC=NN1c1cc(Cl)c(Cc2ccc(Cl)cc2)c(Cl)c1
93 to 95 | CC(=O)Nc1ccc(S(=O)(=O)CCCCNS(=O)(=O)c2ccc(C)cc2)cc1
70 to 73 | CCCCCOc1cccc(N)c1C#N
60 | CC1(C)C2CC3=C(CCC(=O)O3)C1C2 (stereo not given)
143 to 145 | NNC(=O)c1cccc(OCc2csc(-c3ccccc3F)n2)c1

melting point [°C] | Compound
148 to 150 | Cc1nc2c(N)cccn2c1C
235 | O=C(O)COc1ccc(-c2nc3ncccc3[nH]2)c(O)c1
120 to 121 | COC(=O)c1ccc(CNS(C)(=O)=O)cc1N
59 to 61 | CC(C)COc1ccccc1OCCOS(C)(=O)=O
136 to 137 | CC(=O)Oc1cc(C(C)C)ccc1C1(OC(C)=O)C(=O)c2ccccc2C1=O
121 | CCCN(C(N)=S)c1ccc(Cl)cc1Cl
116 to 118 | Nc1ccc(F)c(NC(=O)C(F)(F)F)c1
210 to 218 | Cc1c(Cl)cc(C(=O)O)c(Cl)c1[N+](=O)[O-]
158 to 160 | CC(=O)NNC(=O)c1ccncc1
94 | O=CNc1nc(SCc2ccccc2)nn1-c1ccccc1
191 to 192 | CSc1ccc(C(=O)Nc2cc(-c3c(-c4ccc(F)c(C)c4)nc4cccnn34)ccn2)cc1
262 to 264 | O=C(c1nccs1)c1cnn2c(-c3cccnc3)ccnc12
> 300 | CC(=O)Nc1cccc2c1C(=O)c1c-2n[nH]c1-c1ccc(N2CCOCC2)cc1
70 to 72 | CC(CC(=O)OCc1ccccc1)NC(=O)CCNC(=O)OC(C)(C)C (stereo not given)
140 to 141 | CSc1ccc(/C=C/c2nc3ccccc3n2-c2ccccn2)cc1
106 to 107 | Cc1nn(-c2ccc(C(F)(F)F)cn2)cc1COc1ccc(OC(C)(C)C(=O)O)cc1
169 to 171 | Cc1ccc(-c2cccc(/C=C/C(=O)Nc3ccc(Cc4ccccn4)cc3)c2)cc1
82.5 to 83.5 | O=C(c1ccncc1)N1CCN=C1Nc1c(Cl)cccc1Cl
125 to 128 | CCOC(=O)C(Cc1ccc(S)cc1)(NC(C)=O)C(=O)OCC
134 to 135 | CCOC(=O)c1c(SC)c(N=O)c2ccccn12
